Source: patent US20230218563A1, “METHODS FOR TREATING OR PREVENTING CHRONIC KIDNEY DISEASE” (Arthrosi Therapeutics, Inc., priority 2020, published 2023)

How the values were obtained:
[1] = Solubility of test articles in HBSS assay buffer; details: all tested concentrations, highest 10 μM
Method: Before the experiment, the medium was removed and the cells were washed twice with 100 μL of HBSS without Cl^−. Uptake experiments were carried out at 37±1° C. in 50 μL of HBSS without Cl^−, pH 7.4 containing the probe substrate (20 μM uric acid) and the test article (TA) or solvent.

[2] = biological target: T1, human URAT1 uptake transporter (Homo sapiens, UniProt Q96S37); assay: Inhibition of URAT1 mediated uric acid uptake in MDCKII cells stably expressing human URAT1; type: cell-based; details: MDCKII cells expressing human URAT1; 20 μM uric acid probe; read-out: IC50, inhibition of URAT1 mediated uric acid accumulation
T1 construct: expressed in transfected cells
T1 sequence (Q96S37 1-553): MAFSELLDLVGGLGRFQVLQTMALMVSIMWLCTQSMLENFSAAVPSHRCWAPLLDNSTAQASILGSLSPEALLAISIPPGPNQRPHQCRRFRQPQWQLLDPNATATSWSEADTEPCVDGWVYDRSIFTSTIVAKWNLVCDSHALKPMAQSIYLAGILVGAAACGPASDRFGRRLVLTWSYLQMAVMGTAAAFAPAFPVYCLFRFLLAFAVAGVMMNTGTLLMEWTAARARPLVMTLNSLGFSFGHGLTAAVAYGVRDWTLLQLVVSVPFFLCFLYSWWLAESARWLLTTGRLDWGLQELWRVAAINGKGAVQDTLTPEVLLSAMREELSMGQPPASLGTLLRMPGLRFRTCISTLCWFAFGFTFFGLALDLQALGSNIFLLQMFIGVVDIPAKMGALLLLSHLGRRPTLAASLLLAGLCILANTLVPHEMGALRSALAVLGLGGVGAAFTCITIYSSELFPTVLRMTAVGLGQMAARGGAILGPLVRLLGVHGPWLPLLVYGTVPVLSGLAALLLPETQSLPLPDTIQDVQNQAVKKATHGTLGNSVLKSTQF
Method: Uptake experiments were performed using MDCKII cells stably expressing the human URAT1 uptake transporter. Cells were cultured at 37±1° C. in an atmosphere of 95:5 air:CO2 and were plated onto standard 96-well tissue culture plates at the cell number described in Table 1.
Radiolabeled probe substrate transport was determined by measuring an aliquot (35 μL) from each well for liquid scintillation counting.

[3] = test system: serum uric acid (sUA); assay: Phase 2a cross-over study in adults with gout, serum uric acid; type: in vivo, human; details: for patients with sUA levels below 5 mg/dL / patients with sUA levels below 6 mg/dL: gout patients (sUA>7 mg/dL), alone or combined; for mean sUA level reached at maximum: mean baseline 8.9 mg/dL
[4] = test system: urine albumin-to-creatinine ratio (UACR); assay: Phase 2a study, UACR in a subject with albuminuria; type: in vivo, human; details: one subject with albuminuria, baseline 96 mg/g; sequential 7-day periods: Compound 1 50 mg (Day 7), Compound 1 50 mg/allopurinol 300 mg (Day 14), allopurinol 300 mg (Day 21)
Description: Urine samples were collected for assessment of uric acid excretion. Laboratory safety tests, vital signs, and electrocardiograms were collected throughout the study.

[5] = In vitro metabolism in human liver microsomes; type: in vitro ADME; details: human liver microsomes 0.5 mg/mL, NADPH, 60 minutes, 37° C.
Method: After pre-warming the mixture at 37° C. for 5 minutes, the reaction was initiated by the addition of 1 mM of NADPH and incubated for 60 minutes at 37° C. in a shaking water bath. The reaction was terminated by the addition of 0.5 mL ice-cold acetonitrile. Time 0 incubation was also performed by adding acetonitrile before the addition of microsomes to the incubation mixture as a reference sample for each species. Following vortex and centrifugation at 15,000 g for 3 minutes at room temperature, resulting supernatant was concentrated under nitrogen flow at 33° C., until approximately 0.5 mL of sample remained. The extract was then transferred to a 1.5-mL centrifuge vial for centrifugation at 15,000 g for 3 minutes. Finally, aliquots of the supernatant were transferred to HPLC vials for HPLC-MS analyses.
MS Analysis: Mass spectral analyses were performed on an Agilent single quadruple mass spectrometer equipped with an Agilent 1100 HPLC system. The mass spectrometer was fitted with an electrospray ionization (ESI) source and operated in a negative scan mode between 400 and 500 amu: […]

[6] = once daily, Compound 1 50 mg, febuxostat 40 mg, allopurinol 300 mg
[7] = gout patients, once daily, Compound 1 50 mg, febuxostat 40 mg, allopurinol 300 mg, alone (Day 7/Day 21) or combined

Row | SMILES | solubility in HBSS buffer [1] | IC50 [2] [nM] | patients with sUA levels below 5 mg/dL [3, 6] [%] | patients with sUA levels below 6 mg/dL [3, 6] [%] | mean sUA level reached at maximum [3, 7] [mg/dL] | sUA % change from baseline ([3]; one subject with albuminuria, sequential 7-day periods: Compound 1 50 mg (Day 7), Compound 1 50 mg/allopurinol 300 mg (Day 14), allopurinol 300 mg (Day 21)) [%] | UACR [4] [mg/g] | UACR % change from baseline [4] [%] | reduction of mean sUA from baseline [3, 7] [%] | Parent, % MS response (parent left) [5] [%]
1 | [2H]c1c(O)c([2H])c2oc(C(C)O)c(C(=O)c3cc(Br)c(O)c(Br)c3)c2c1[2H] (centres unmarked) [Compound 2, (3,5-dibromo-4-hydroxyphenyl)(6-hydroxy-2-(1-hydroxyethyl)benzofuran-3-yl-4,5,7-d3)methanone] | soluble | 913 |  |  |  |  |  |  |  | 
2 | Oc1ncnc2[nH]ncc12 [allopurinol] |  |  | 11 | 56 | 5.8 | −40 | 55 | −42.6 |  | 
3 | Cc1nc(-c2ccc(OCC(C)C)c(C#N)c2)sc1C(=O)O [febuxostat] |  |  | 33 | 67 | 5.5 |  |  |  | 38.9 | 
4 | CCc1oc2ccccc2c1C(=O)c1cc(Br)c(O)c(Br)c1 [benzbromarone, reference compound] | soluble |  |  |  |  |  |  |  |  | 13.1
